{"source": "patent US9474730B2", "about": "“Methods and compositions for use with K-ras mediated disorders” (Board of Regents of the University of Texas System, priority 2012, dated 2016)", "key": {"[1]": {"molecular_target": "T1, GFP-CTH (mGFP-tagged C-terminal region of H-ras) in MDCK cells (Homo sapiens, UniProt P01112)", "T1 construct": "hypervariable region of H-ras (amino acids 166-189) cloned onto the carboxy terminus of monomeric GFP; expressed in transfected cells", "T1 sequence (P01112 166-189 limits assumed)": "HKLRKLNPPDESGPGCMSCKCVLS", "assay": "High throughput cell-based screen: plasma membrane localization of GFP-CTH", "design": "species or system canine", "conditions": "positive control"}, "[2]": {"molecular_target": "T2, GFP-K-rasG12V in MDCK or BHK cells (Homo sapiens, UniProt P01116, G12V)", "T2 construct": "MDCK and BHK cells expressing GFP-tagged full length constitutively active Ras (G12V) proteins; expressed in transfected cells", "assay": "Cellular fractionation (P100/S100) with quantitative Western blotting, GFP-K-rasG12V", "format": "cell-based, canine (MDCK), hamster (BHK)", "conditions": "48 hours", "description": "Following treatment, membrane (P100) and soluble (S100) protein fractions were prepared and analyzed by quantitative Western blotting.\n(§1) Preparation of whole-cell lysates: cells were lysed in Buffer B (50 mM Tris [pH 7.5], 75 mM NaCl, 25 mM NaF, 5 mM MgCl2, 5 mM EGTA, 1 mM dithiothreitol, 100 μM NaVO4, 1% Nonidet P-40 plus protease inhibitors). Cellular fractionation: cells were incubated in Buffer A (10 mm Tris-HCl, pH 7.5, 25 mm NaF, 5 mm MgCl2, 1 mm EGTA, 1 mm dithiothreitol, 100 μm NaVO4 plus protease inhibitors) for 30 minutes on ice and lysed by passing through a 27 G needle 30 times. The post nuclear supernatant was centrifuged at 100,000 g for 30 minutes and the membrane pellet was resuspended in Buffer A containing 1% Triton X-100.\n(§2) SDS-PAGE and Western blotting with the specified antibody were performed using 20 μg of each whole cell lysate/P100 fraction and volumes of S100 equal to that of the corresponding P100. Signal was detected by enhanced chemiluminescence (SuperSignal; Pierce, Thermo Fisher Scientific, Rockford, Ill.) and imaged by FluorChemQ (Alpha Inotech, San Leandro, Calif., USA). Quantification of intensities was performed using FluorChemQ software."}, "[3]": {"system": "BHK cells stably expressing K-rasG12V", "assay": "Signaling downstream of oncogenic K-ras by quantitative Western blotting", "format": "cell-based, hamster", "conditions": "other Ca2+ channel blockers and ionomycin", "description": "FIG. 5: Illustrates that fendiline HCl inhibits Raf kinase activity and signaling downstream of oncogenic K-ras: BHK cells stably expressing K-rasG12V were treated with vehicle or fendiline HCl (6 μg/mL) for 48 h. (A) Raf kinase activity in membrane fractions prepared from the cells was measured in a coupled […] kinase assay. Data is shown as mean±SEM from 3 independent experiments. (B) ppMEK and ppERK in soluble protein fraction and pAkt levels in membrane protein fraction were measured by quantitative Western blotting. Actin and Akt were used as loading controls for soluble and membrane fractions, respectively. A representative blots are shown. Data is shown as mean±SEM from 3-4 independent experiments. Statistical significance was calculated using one way ANOVA and Student's T-test. (*=p<0.05), wherein experimentation was performed in accordance with principles described herein;\nas §1\nQuantification of intensities was performed using FluorChemQ software."}, "[4]": {"system": "MAPK activation (pERK) in Hec1A cells", "conditions": "48 h", "description": "as §2"}, "[5]": {"molecular_target": "T3, GFP-CTK (mGFP-tagged C-terminal region of K-ras) in MDCK cells (Homo sapiens, UniProt P01116)", "T3 construct": "hypervariable region of K-ras (amino acids 166-188) cloned onto the carboxy terminus of GFP; expressed in transfected cells", "assay": "High throughput cell-based screen: plasma membrane localization of GFP-CTK", "design": "species or system canine", "conditions": "positive control, 250 ng/mL UCN-01, MDCK", "description": "FIG. 1: Illustrates results of a high throughput cell-based screening of chemical libraries: Madin-Darby Canine Kidney epithelial cells (MDCK) expressing monomeric green fluorescent protein (mGFP)-tagged C-terminal region of K- or H-ras (GFP-CTK and GFP-CTH) were seeded in 96 well plates and treated with drug libraries for 48 h. Cells were then fixed with paraformaldehyde and imaged by BD Pathway Imager in confocal mode; shown are representative images of cells treated with vehicle, […], and 10 μM FTI-276; wherein experimentation was performed in accordance with principles described herein;\nIn accordance with some embodiments described herein, wild type MDCK cells or MDCK cells expressing monomeric green fluorescent protein (mGFP)-tagged C-terminal region of K-ras or H-ras (GFP-CTK and GFP-CTH respectively) were seeded in triplicate in 96 well plates (Matrical) at a density of 30,000 cells/well and incubated for 24 h at 37° C. Compounds were individually added to test cells at a concentration of 4 μg/mL (concentration of DMSO 1%) and incubated for a further 48 h.\nCells were then fixed with 4% paraformaldehyde and stored in PBS at 4° C. until imaged. Plates were imaged using a BD Pathway High-Throughput Bioimager. Images were acquired by a 3×3 montage with 20× objective lens using GFP-confocal mode. […]"}, "[6]": {"system": "tumor cell lines expressing oncogenic mutant or wild-type K-Ras", "assay": "Proliferation assay (MTS), panel of pancreatic, endometrial, lung and colon tumor cell lines", "format": "cell-based", "conditions": "72 h, various concentrations", "description": "(§3) (A) A panel of wild-type (WT) or oncogenic mutant (Mut) K-Ras-expressing tumor cells were seeded in 96-well plates and treated for 72 h with vehicle (DMSO) or various concentrations of fendiline. […] The graphs show relative mean numbers of viable cells±SEMs from 3 independent experiments. Cell lines expressing oncogenic mutant K-Ras are shown in red, and cell lines that express wild-type K-Ras are shown in black. NCI H1299 cells (shown in blue) express wild-type K-Ras but mutant N-Ras. CaCO-2 cells (shown in green) overexpress wild-type K-Ras. (B) K-Ras levels in whole-cell lysates of SNU-C1, CaCO-2, and SK-CO-1 cells were quantified by Western blotting. The graphs show means±SEMs for 3 isolates of each cell line (indicated as 1, 2, and 3). K-Ras expression was normalized to the SNU-C1 sample.\n(§4) After 24 h, fresh growth medium supplemented with 1% vehicle (DMSO), various concentrations of fendiline, or U0126 was added and cells were grown for 48 h or 72 h."}, "[7]": {"system": "CaCO-2 colon cancer cell line", "assay": "Proliferation assay (MTS), CaCO-2", "format": "cell-based", "conditions": "72 h; wild type K-Ras, overexpressed", "description": "as §3, §4"}, "SNU-C1 cells": {"system": "SNU-C1 cells", "assay": "Proliferation assay (MTS), SNU-C1", "format": "cell-based", "conditions": "72 h; wild type K-Ras", "description": "as §3, §4"}, "[8]": {"system": "K-Ras-transformed Hec1A cells", "assay": "Proliferation assay (MTS), Hec-1a, fendiline versus U0126", "conditions": "48 h, single dose of fendiline, U0126 renewed every 24 h", "method": "The number of viable cells was quantified (absorbance at 490 nm) using the CellTiter 96 AQueous One Solution cell proliferation assay kit (Promega). […] Cell numbers were normalized to the corresponding vehicle-treated control. Statistical significance was calculated using Student's t test (*, P<0.05). […] Cell numbers were quantified using the CellTiter 96 AQueous One Solution cell proliferation assay (MTS) (Promega), according to the manufacturer's protocol."}}, "data": [{"smiles": "CSCC[C@H](NC(=O)c1ccc(NC[C@@H](N)CS)cc1-c1ccccc1)C(=O)O", "note": "[FTI-276]", "values": [{"measurement": "localization of GFP-CTH", "setting": "[1]; 10 μM FTI-276, MDCK", "result": "causes cytoplasmic localization of GFP-CTH"}]}, {"smiles": "C[C@H](CCC(=O)O)C[C@H](C)C[C@H](C)C(=O)/C=C(\\O)[C@H](C)C[C@H](C)C/C=C/[C@@H](C)[C@@H](O)[C@@H](C)[C@@H](O)C[C@@H]1CC[C@@](C)([C@H]2CC[C@@](C)([C@@H](C)O)O2)O1", "note": "[Ionomycin, ionomycin]", "values": [{"measurement": "localization of Ras proteins (fractionation)", "setting": "[2]; ionomycin 1 μM, GFP-K-rasG12V or GFP-H-rasG12V", "result": "did not significantly alter the localization of Ras proteins"}, {"measurement": "effect on Ras signaling", "setting": "[3]", "result": "None of the other Ca^2+ channel blockers tested or ionomycin had any effect on Ras signaling"}]}, {"smiles": "N#CC(=C(/N)Sc1ccccc1N)/C(C#N)=C(\\N)Sc1ccccc1N", "note": "[U0126]", "values": [{"measurement": "inhibition of MAPK activation (pERK levels), relative potency", "setting": "[4]", "result": "much more potent than fendiline"}]}, {"smiles": "CN[C@@H]1C[C@H]2O[C@@](C)([C@@H]1OC)n1c3ccccc3c3c4c(c5c6ccccc6n2c5c31)C(=O)N[C@@H]4O", "note": "[UCN-01]", "values": [{"measurement": "localization of GFP-CTK", "setting": "[5]", "result": "causes mislocalization of both GFP-CTK and GFP-CTH"}, {"measurement": "localization of GFP-CTH", "setting": "[1]; 250 ng/mL UCN-01, MDCK", "result": "causes mislocalization of both GFP-CTK and GFP-CTH"}]}, {"smiles": "COc1ccc([C@@H]2Sc3ccccc3N(CCN(C)C)C(=O)[C@@H]2OC(C)=O)cc1", "note": "[diltiazem]", "values": [{"measurement": "localization of GFP-K-rasG12V (fractionation)", "setting": "[2]; other Ca2+ channel blockers, 10 μM", "result": "None of the other Ca^2+ channel blockers altered the localization of GFP-K-rasG12V"}]}, {"smiles": "CC(NCCC(c1ccccc1)c1ccccc1)c1ccccc1", "note": "(centres unmarked) [fendiline, 3,3-diphenyl-N-(1-phenylethyl)propan-1-amine]", "values": [{"measurement": "inhibition of proliferation, oncogenic mutant versus wild-type K-Ras tumor cells", "setting": "[6]", "result": "more potently inhibited the proliferation of tumor cells that express oncogenic mutant K-Ras than tumor cells that express wild-type K-Ras"}, {"measurement": "inhibition of proliferation of CaCO-2", "setting": "[7]", "result": "potently inhibited"}, {"measurement": "inhibition of proliferation of SNU-C1", "setting": "SNU-C1 cells", "result": "unresponsive"}, {"measurement": "inhibition of cell proliferation, relative potency", "setting": "[8]", "result": "significantly more potent than U0126"}]}]}
